ChEMBL document CHEMBL1201862, “PubChem BioAssay data set” (2004)
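Interpolation was linear, between the two tested concentrations surrounding the appropriate level; five concentrations were tested over 48 hours in 96-well plates. GI50: concentration for 50% inhibition of growth.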 Calls of active or inactive are those of the source. Rule as the data show it: active = GI50 up to about 1.1 µM and inactive = higher.

How the values were obtained:
Assay in all cases: NCI anticancer screen, dose series, 48 h
[1] = test system: U-251
[2] = test system: NCI-H460
[3] = test system: Malme-3M
[4] = test system: UO-31
[5] = test system: KM12
[6] = test system: HL-60
[7] = test system: CAKI-1
[8] = test system: EKVX
[9] = test system: CCRF-CEM
[10] = test system: SK-OV-3
[11] = test system: SF-268
[12] = test system: SNB-19
[13] = test system: OVCAR-4
[14] = test system: HOP-62
[15] = test system: SK-MEL-2
[16] = test system: K562
[17] = test system: COLO 205
[18] = test system: TK-10
[19] = test system: SR
[20] = test system: ACHN

Measured: GI50

O=C1CCCCN1
inactive: [1] > 252 µM | [2] > 1120 µM | [3] > 1120 µM | [4] > 1120 µM | [5] > 1120 µM | [6] 706 µM | [7] > 1120 µM | [8] > 258 µM | [9] > 1120 µM | [10] > 150 µM | [11] > 1120 µM | [12] > 1120 µM | [13] > 1120 µM | [14] > 1120 µM | [15] > 1120 µM | [16] > 1120 µM | [17] > 1120 µM

O=NN1C(c2ccccc2)CNC(=O)CC1c1ccccc1 (stereo not given)
inactive: [1] 55.3 µM | [2] 36.2 µM | [3] 50.9 µM | [4] 36.3 µM | [5] 42.9 µM | [6] 21.9 µM | [7] 59.6 µM | [8] 35.4 µM | [9] 35.3 µM | [10] 42 µM | [11] 78.5 µM | [12] 48.5 µM | [13] 52.8 µM | [14] 37.6 µM | [15] 33.7 µM | [16] 22.6 µM | [17] 25.8 µM

COc1ccc(-c2c3c(nc4nc(SC)nc(SC)c24)CCCC3)cc1OC
inactive: [1] 70.3 µM | [2] 29.2 µM | [3] 42.5 µM | [18] 38.5 µM | [4] 37.1 µM | [5] 81.3 µM | [6] 25.1 µM | [7] 67.9 µM | [8] 70 µM | [9] 21.3 µM | [10] > 100 µM | [11] 82.2 µM | [12] > 100 µM | [19] 8.07 µM | [14] 46.8 µM | [20] 72.4 µM | [15] 25.8 µM | [16] 28.2 µM | [17] > 100 µM

NC12CCC(CC1=O)C2 (stereo not given)
inactive: [1] > 100 µM | [3] > 100 µM | [18] > 100 µM | [4] > 100 µM | [5] > 100 µM | [6] > 100 µM | [8] > 100 µM | [9] > 100 µM | [10] > 100 µM | [11] > 100 µM | [13] > 100 µM | [19] > 100 µM | [14] > 100 µM | [20] > 100 µM | [15] > 100 µM | [16] > 100 µM | [17] > 100 µM

CC(=O)N1N=C(c2ccc3ccccc3c2O)CC1c1cccs1 (stereo not given)
inactive: [1] 8.09 µM | [2] 8.49 µM | [3] 10.4 µM | [18] 25 µM | [4] 9.95 µM | [5] 14.4 µM | [7] 20.1 µM | [9] 4.04 µM | [10] 44.3 µM | [11] 12.3 µM | [13] 27.8 µM | [19] 3.6 µM | [14] 16.3 µM | [20] 15.6 µM | [15] 19 µM | [16] 4.18 µM | [17] 20.2 µM

COc1ccc(C[C@H](N)C(=O)N2C[C@H](CO)C[C@H](n3cnc4c(N(C)C)ncnc43)C2)cc1
inactive: [1] > 100 µM | [2] > 100 µM | [3] > 100 µM | [18] > 100 µM | [4] > 100 µM | [5] > 100 µM | [6] 73.5 µM | [7] > 100 µM | [8] > 100 µM | [9] > 100 µM | [10] > 100 µM | [11] > 100 µM | [12] > 100 µM | [13] > 100 µM | [19] > 100 µM | [14] > 100 µM | [20] > 100 µM | [15] > 100 µM | [16] > 100 µM | [17] > 100 µM

O=c1cc(-c2nc3ccccc3[nH]2)[nH]c2nc(-c3nc4ccccc4[nH]3)cc(-c3ccc(Cl)cc3)c12
inactive: [1] 16.1 µM | [2] 16.3 µM | [3] 23 µM | [18] 19.4 µM | [4] 11.2 µM | [5] 22 µM | [6] 24.9 µM | [7] 21.9 µM | [8] 23.3 µM | [9] 24.7 µM | [10] 15.3 µM | [11] 15.8 µM | [12] 46.3 µM | [13] 26.1 µM | [19] 15.2 µM | [14] 24.4 µM | [20] 16.6 µM | [15] 12.2 µM | [16] 16.1 µM | [17] 12.1 µM

O=C1CSC(C(/N=N/c2ccc(Cl)cc2)c2nc3ccccc3[nH]2)=N1 (stereo not given)
inactive: [1] 53.3 µM | [2] 33 µM | [3] > 100 µM | [18] > 100 µM | [4] 39.1 µM | [5] 45.8 µM | [6] 51.6 µM | [7] > 100 µM | [8] 91.2 µM | [9] 10.7 µM | [10] 55 µM | [11] > 100 µM | [12] 50.6 µM | [13] > 100 µM | [19] 76.4 µM | [14] 35.2 µM | [20] 28.7 µM | [15] 16 µM | [16] 61.8 µM | [17] > 100 µM

COC1C(=[N+]=[N-])C(=O)NC(=O)N1C1OC(COC(c2ccccc2)(c2ccccc2)c2ccccc2)C(O)C1O (stereo not given)
inactive: [1] 19.7 µM | [2] 25.4 µM | [3] 16.1 µM | [4] 18.2 µM | [5] 16.9 µM | [6] 23.2 µM | [7] 18.6 µM | [8] 19 µM | [9] 16.5 µM | [10] 20.5 µM | [11] 18.1 µM | [12] 19.7 µM | [13] 14.2 µM | [14] 22.7 µM | [20] 18.1 µM | [15] 19.1 µM | [16] 19.7 µM | [17] 19.6 µM
